# In patent US20140155376A1, “PYRROLOPYRAZINE KINASE INHIBITORS” (Hoffmann-La Roche Inc., priority 2010, published 2014):
# Target: T1, JAK3 (recombinant human kinase domain; h-jak3(810-1124)) (Homo sapiens, UniProt P52333)
# T1 construct: h-jak3(810- 1124)-sf9-c; made in house; host or cells: Sf9 insect cells
# Assay: Determination of IC50 of Janus Kinase (JAK) inhibition: JAK3, radioactive end-point assay with 33P-ATP
# Assay type: biochemical
# Settings: JAK3 kinase domain; ATP 1.5 uM, peptide 50 uM, 20 minutes, room temperature, 10% DMSO; read-out: Ic50 h-jak3(810-1124)-sf9-c:no additive
# Excerpt: Determination of IC50 of Janus Kinase (JAK) Inhibition:
# Enzymes and peptide substrate used are described below: • JAK1: Recombinant human kinase domain from Invitrogen (Cat # PV4774) • JAK3: Recombinant human kinase domain from Millipore (Cat #14-629) or prepared. • JAK2: Recombinant human kinase domain from Millipore (Cat #14-640) • Substrate: N-terminally biotinylated 14-mer peptide derived from activation loop of JAK1 with sequence of the peptide substrate: Biotin-[sequence]
# Assay Conditions Used are Described Below: • Assay Buffer: JAK Kinase Buffer: 50 mM Hepes [pH 7.2], 10 mM MgCl2, 1 mM DTT, • 1 mg/ml BSA. The assay is carried out in this buffer. • Assay Format The kinase activity of all three JAK kinases is measured using a radioactive, end-point assay and with trace amounts of ^33P-ATP. The assays are carried out in 96-well polypropylene plates.
# All concentrations are final in the reaction mixture and all incubations are carried at room temperature. […] Final concentration of DMSO in the reaction is 10%. • 2) Compounds are preincubated with enzyme (0.5 nM JAK3 (commercially available), 0.2 nM JAK3 (prepared), 1 nM JAK2, 5 nM JAK1) for 10 minutes. • 3) Reactions are initiated by the addition of a cocktail of the two substrates (ATP and peptide premixed in the JAK Kinase Buffer). In the JAK2/JAK3 assays, ATP and the peptide are used at concentrations of 1.5 uM and 50 uM, respectively. JAK1 assay is carried out at an ATP concentration of 10 uM and a peptide concentration of 50 uM. • 4) The duration of the assay for JAK2 and JAK3 is 20 minutes. JAK1 assay is carried out for 40 minutes. With all three enzymes, reactions are terminated by the addition of 0.5M EDTA to a final concentration of 100 mM. • 5) 25 ul of terminated reactions are transferred to 150 ul of a 7.5% (v/v) slurry of streptavidin-coated sepharose beads in MgCl2- and CaCl2-free 1× Phosphate Buffered Saline containing 50 mM of EDTA in 96-well, 1.2 um MultiScreen-BV filter plates. • 6) After a 30-minute incubation, the beads are washed under vacuum with the following buffers: • a. 3 to 4 washes with 200 ul of 2M NaCl. • b. 3 to 4 washes with 200 ul of 2M NaCl plus 1% (v/v) phosphoric acid. • c. 1 wash with water. • 7) Washed plates are dried in a 60° C. oven for between 1 to 2 hours. • 8) 70 ul of Microscint 20 scintillation fluid is added to each well of filter plates and after at least 30 minutes of incubation, radioactive counts are measured in a Perkin-Elmer microplate scintillation counter.
# T1 sequence (P52333 810-1124): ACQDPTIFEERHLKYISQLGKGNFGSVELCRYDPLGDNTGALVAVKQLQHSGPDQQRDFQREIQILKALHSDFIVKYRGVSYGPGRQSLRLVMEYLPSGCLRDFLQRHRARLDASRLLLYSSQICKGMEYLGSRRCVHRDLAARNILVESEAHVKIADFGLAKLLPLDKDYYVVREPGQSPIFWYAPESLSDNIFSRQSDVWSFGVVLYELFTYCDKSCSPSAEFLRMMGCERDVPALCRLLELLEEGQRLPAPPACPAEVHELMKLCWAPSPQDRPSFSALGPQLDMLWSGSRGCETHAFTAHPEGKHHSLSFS
row,SMILES,IC50
1,"CC(C)c1cnc2[nH]cc(C(=O)N[C@@H](C)C(C)(C)O)c2n1 [Example I-5, 2-Isopropyl-5H-pyrrolo[2,3-b]pyrazine-7-carboxylic acid ((S)-2-hydroxy-1,2-dimethyl-propyl)-amide]",0.302 µM
2,"CC(C)NC(=O)c1c[nH]c2ncc(Oc3ccc4c(c3)[C@H](NS(C)(=O)=O)CC4)nc12 [Example I-268, 2-((R)-3-Methanesulfonylamino-indan-5-yloxy)-5H-pyrrolo[2,3-b]pyrazine-7-carboxylic acid isopropylamide]",0.155 µM
3,"Cc1ncccc1Oc1cnc2[nH]cc(C(=O)NC(C)C)c2n1 [Example I-280, 2-(2-Methyl-pyridin-3-yloxy)-5H-pyrrolo[2,3-b]pyrazine-7-carboxylic acid isopropylamide]",3.98 µM
4,"O=C(NC(C1CC1)C1CC1)c1c[nH]c2ncc(C3CC3)nc12 [Example I-80, 2-Cyclopropyl-5H-pyrrolo[2,3-b]pyrazine-7-carboxylic acid dicyclopropyl-methyl-amide]",0.0039 µM
5,"Cc1ccc(F)c(-n2cnc(-c3cnc4[nH]cc(C(=O)N[C@@H](C)C(C)(C)C)c4n3)c2)c1 [Example I-148, 2-[1-(2-Fluoro-5-methyl-phenyl)-1H-imidazol-4-yl]-5H-pyrrolo[2,3-b]pyrazine-7-carboxylic acid ((S)-1,2,2-trimethyl-propyl)-amide]",0.00325 µM
6,"C[C@H](NC(=O)c1c[nH]c2ncc(Oc3ccccc3)nc12)C1CCCCC1 [Example I-123, 2-Phenoxy-5H-pyrrolo[2,3-b]pyrazine-7-carboxylic acid ((S)-1-cyclohexyl-ethyl)-amide]",1.33 µM
7,"CC(C)NC(=O)c1c[nH]c2ncc(Oc3cccc(C(F)(F)F)c3)nc12 [Example I-235, 2-(3-Trifluoromethyl-phenoxy)-5H-pyrrolo[2,3-b]pyrazine-7-carboxylic acid isopropylamide]",0.784 µM
8,"CC[C@@H](C)NC(=O)c1c[nH]c2ncc(Oc3ccc(F)cc3F)nc12 [Example I-126, 2-(2,4-Difluoro-phenoxy)-5H-pyrrolo[2,3-b]pyrazine-7-carboxylic acid ((R)-sec-butyl)-amide]",0.19 µM
9,"CC(C)(CNC(=O)c1c[nH]c2ncc(C3CC3)nc12)CS(C)(=O)=O [Example I-98, 2-Cyclopropyl-5H-pyrrolo[2,3-b]pyrazine-7-carboxylic acid (3-methanesulfonyl-2,2-dimethyl-propyl)-amide]",0.0111 µM
10,"CC(NC(=O)c1c[nH]c2ncc(C3CC3)nc12)C1CCOCC1 (centres unmarked) [Example I-85, 2-Cyclopropyl-5H-pyrrolo[2,3-b]pyrazine-7-carboxylic acid [1-(tetrahydro-pyran-4-yl)-ethyl]-amide]",0.0725 µM
11,"CC(C)NC(=O)c1c[nH]c2ncc(Oc3cccc(OC(F)(F)F)c3)nc12 [Example I-230, 2-(3-Trifluoromethoxy-phenoxy)-5H-pyrrolo[2,3-b]pyrazine-7-carboxylic acid isopropylamide]",2.61 µM
12,"CC(C)NC(=O)c1c[nH]c2ncc(Oc3ccc4ccccc4c3)nc12 [Example I-242, 2-(Naphthalen-2-yloxy)-5H-pyrrolo[2,3-b]pyrazine-7-carboxylic acid isopropylamide]",1.18 µM
13,"CC(C)NC(=O)c1c[nH]c2ncc(Oc3ccc4c(c3)[C@H](N)CC4)nc12 [Example I-281, 2-((R)-3-Amino-indan-5-yloxy)-5H-pyrrolo[2,3-b]pyrazine-7-carboxylic acid isopropylamide]",0.138 µM
14,"CC(C)NC(=O)c1c[nH]c2ncc(Oc3ccc4ccn(C)c4c3)nc12 [Example I-276, 2-(1-Methyl-1H-indol-6-yloxy)-5H-pyrrolo[2,3-b]pyrazine-7-carboxylic acid isopropylamide]",0.574 µM
15,"N#CC(NC(=O)c1c[nH]c2ncc(C3CC3)nc12)C1CC1 (centres unmarked) [Example I-90, 2-Cyclopropyl-5H-pyrrolo[2,3-b]pyrazine-7-carboxylic acid (cyano-cyclopropyl-methyl)-amide]",0.0145 µM
16,"CCc1cnc2[nH]cc(C(=O)NCC(C)(C)CO)c2n1 [Example I-39, 2-Ethyl-5H-pyrrolo[2,3-b]pyrazine-7-carboxylic acid (3-hydroxy-2,2-dimethyl-propyl)-amide]",0.302 µM
17,"CCNC(=O)c1c[nH]c2ncc(Oc3ccccc3)nc12 [Example I-131, 2-Phenoxy-5H-pyrrolo[2,3-b]pyrazine-7-carboxylic acid ethylamide]",1.03 µM
18,"C[C@@H](NC(=O)c1c[nH]c2ncc(Oc3ccc(F)cc3F)nc12)C1CCCCC1 [Example I-124, 2-(2,4-Difluoro-phenoxy)-5H-pyrrolo[2,3-b]pyrazine-7-carboxylic acid ((R)-1-cyclohexyl-ethyl)-amide]",0.442 µM
19,"CC(C)NC(=O)c1c[nH]c2ncc(Oc3ccc4c(c3)[C@H](O)CC4)nc12 [Example I-303, 2-((R)-3-Hydroxy-indan-5-yloxy)-5H-pyrrolo[2,3-b]pyrazine-7-carboxylic acid isopropylamide]",0.14 µM
20,"CC(C)NC(=O)c1c[nH]c2ncc(Oc3ccc4c(c3)[C@H](NC(=O)c3ccccc3)CC4)nc12 [Example I-286, 2-((R)-3-Benzoylamino-indan-5-yloxy)-5H-pyrrolo[2,3-b]pyrazine-7-carboxylic acid isopropylamide]",0.152 µM
21,"CC(C)(C(=O)O)C(NC(=O)c1c[nH]c2ncc(C3CC3)nc12)C1CC1 (centres unmarked) [Example I-92, 3-Cyclopropyl-3-[(2-cyclopropyl-5H-pyrrolo[2,3-b]pyrazine-7-carbonyl)-amino]-2,2-dimethyl-propionic acid]",0.0951 µM
22,"CC(CO)CNC(=O)c1c[nH]c2ncc(C3CC3)nc12 (centres unmarked) [Example I-69, 2-Cyclopropyl-5H-pyrrolo[2,3-b]pyrazine-7-carboxylic acid (3-hydroxy-2-methyl-propyl)-amide]",0.143 µM
23,CCNC(=O)c1c[nH]c2ncc(Oc3cccc4c3CCCC4)nc12 [Example I-259],6.71 µM
24,"CCc1cccc(-n2cnc(-c3cnc4[nH]cc(C(=O)N[C@@H](C)C(C)(C)C)c4n3)c2)c1 [Example I-151, 2-[1-(3-Ethyl-phenyl)-1H-imidazol-4-yl]-5H-pyrrolo[2,3-b]pyrazine-7-carboxylic acid ((S)-1,2,2-trimethyl-propyl)-amide]",0.0124 µM

# Other lines, results leading:
row,IC50,SMILES
1,0.234 µM,"CC(C)NC(=O)c1c[nH]c2ncc(Oc3ccc4c(c3)[C@H](NC(=O)C(C)(C)C)CC4)nc12 [Example I-285, 2-[(R)-3-(2,2-Dimethyl-propionylamino)-indan-5-yloxy]-5H-pyrrolo[2,3-b]pyrazine-7-carboxylic acid isopropylamide]"
2,0.0001 µM,"C[C@H](NC(=O)c1c[nH]c2ncc(-c3ccc(C(=O)N4CCC(C)(O)CC4)s3)nc12)C(C)(C)C [Example I-175, 2-[5-(4-Hydroxy-4-methyl-piperidine-1-carbonyl)-thiophen-2-yl]-5H-pyrrolo[2,3-b]pyrazine-7-carboxylic acid ((S)-1,2,2-trimethyl-propyl)-amide]"
3,0.00042 µM,"Cc1ccc(CNC(=O)c2ccc(-c3cnc4[nH]cc(C(=O)N[C@@H](C)C(C)(C)C)c4n3)s2)o1 [Example I-193, 2-{5-[(5-Methyl-furan-2-ylmethyl)-carbamoyl]-thiophen-2-yl}-5H-pyrrolo[2,3-b]pyrazine-7-carboxylic acid ((S)-1,2,2-trimethyl-propyl)-amide]"
4,0.00022 µM,"C[C@H](NC(=O)c1c[nH]c2ncc(-c3ccc(C(=O)NCC4CCCC4)s3)nc12)C(C)(C)C [Example I-168, 2-[5-(Cyclo-pentylmethyl-carbamoyl)-thiophen-2-yl]-5H-pyrrolo[2,3-b]pyrazine-7-carboxylic acid ((S)-1,2,2-trimethyl-propyl)-amide]"
5,0.00046 µM,"Cc1ccccc1CNC(=O)c1ccc(-c2cnc3[nH]cc(C(=O)N[C@@H](C)C(C)(C)C)c3n2)s1 [Example I-187, 2-[5-(2-Methyl-benzylcarbamoyl)-thiophen-2-yl]-5H-pyrrolo[2,3-b]pyrazine-7-carboxylic acid ((S)-1,2,2-trimethyl-propyl)-amide]"
6,0.00032 µM,"CC(=O)NC1CCN(C(=O)c2ccc(-c3cnc4[nH]cc(C(=O)N[C@@H](C)C(C)(C)C)c4n3)s2)CC1 [Example I-183, 2-[5-[4-Acetylamino-piperidine-1-carbonyl)-thiophen-2-yl]-5H-pyrrolo[2,3-b]pyrazine-7-carboxylic acid ((S)-1,2,2-trimethyl-propyl)-amide]"
7,0.00073 µM,"C[C@H](NC(=O)c1c[nH]c2ncc(-c3ccc(C(=O)Nc4ccc5c(c4)CCCC5)s3)nc12)C(C)(C)C [Example I-200, 2-[5-(5,6,7,8-Tetrahydro-naphthalen-2-ylcarbamoyl)-thiophen-2-yl]-5H-pyrrolo[2,3-b]pyrazine-7-carboxylic acid ((S)-1,2,2-trimethyl-propyl)-amide]"
8,0.0395 µM,"CC[C@](C)(O)[C@H](C)NC(=O)c1c[nH]c2ncc(C3CC3)nc12 [Example I-31, 2-Cyclopropyl-5H-pyrrolo[2,3-b]pyrazine-7-carboxylic acid ((1S,2S)-2-hydroxy-1,2-dimethyl-butyl)-amide]"
9,0.00032 µM,"COc1cccc(CNC(=O)c2ccc(-c3cnc4[nH]cc(C(=O)N[C@@H](C)C(C)(C)C)c4n3)s2)c1 [Example I-206, 2-[5-(3-Methoxy-benzylcarbamoyl)-thiophen-2-yl]-5H-pyrrolo[2,3-b]pyrazine-7-carboxylic acid ((S)-1,2,2-trimethyl-propyl)-amide]"
10,0.0202 µM,"CC(=O)N[C@@H]1CCc2ccc(Oc3cnc4[nH]cc(C(=O)N[C@@H](C)C(C)(C)C)c4n3)cc21 [Example I-287, 2-((R)-3-Acetylamino-indan-5-yloxy)-5H-pyrrolo[2,3-b]pyrazine-7-carboxylic acid ((S)-1,2,2-trimethyl-propyl)-amide]"
11,0.00071 µM,"C[C@H](NC(=O)c1c[nH]c2ncc(-c3ccc(C(=O)NCC(C)(C)C)s3)nc12)C(C)(C)C [Example I-210, 2-[5-(2,2-Dimethyl-propylcarbamoyl)-thiophen-2-yl]-5H-pyrrolo[2,3-b]pyrazine-7-carboxylic acid ((S)-1,2,2-trimethyl-propyl)-amide]"
